ChEMBL document CHEMBL4028801, “A multifactorial approach to hepatobiliary transporter assessment enables improved therapeutic compound development” (Toxicol Sci, 2013)

Columns and labels:
[1] = Ratio of drug concentration at steady state in human at 200 mg, po TID after 8 hrs to IC50 for human BSEP overexpressed in Sf9 insect cells; type: ADME, organism-based; settings: in vivo
[2] = biological target: T1, ATP-binding cassette sub-family C member 4 (Homo sapiens, UniProt O15439); experiment: Inhibition of human MRP4 overexpressed in Sf9 cell membrane vesicles assessed as uptake of [3H]-estradiol-17beta-D-glucuronide in presence of ATP and GSH measured after 20 mins by membrane vesicle transport assay; type: ADME, cell-based
T1 sequence (O15439 whole entry): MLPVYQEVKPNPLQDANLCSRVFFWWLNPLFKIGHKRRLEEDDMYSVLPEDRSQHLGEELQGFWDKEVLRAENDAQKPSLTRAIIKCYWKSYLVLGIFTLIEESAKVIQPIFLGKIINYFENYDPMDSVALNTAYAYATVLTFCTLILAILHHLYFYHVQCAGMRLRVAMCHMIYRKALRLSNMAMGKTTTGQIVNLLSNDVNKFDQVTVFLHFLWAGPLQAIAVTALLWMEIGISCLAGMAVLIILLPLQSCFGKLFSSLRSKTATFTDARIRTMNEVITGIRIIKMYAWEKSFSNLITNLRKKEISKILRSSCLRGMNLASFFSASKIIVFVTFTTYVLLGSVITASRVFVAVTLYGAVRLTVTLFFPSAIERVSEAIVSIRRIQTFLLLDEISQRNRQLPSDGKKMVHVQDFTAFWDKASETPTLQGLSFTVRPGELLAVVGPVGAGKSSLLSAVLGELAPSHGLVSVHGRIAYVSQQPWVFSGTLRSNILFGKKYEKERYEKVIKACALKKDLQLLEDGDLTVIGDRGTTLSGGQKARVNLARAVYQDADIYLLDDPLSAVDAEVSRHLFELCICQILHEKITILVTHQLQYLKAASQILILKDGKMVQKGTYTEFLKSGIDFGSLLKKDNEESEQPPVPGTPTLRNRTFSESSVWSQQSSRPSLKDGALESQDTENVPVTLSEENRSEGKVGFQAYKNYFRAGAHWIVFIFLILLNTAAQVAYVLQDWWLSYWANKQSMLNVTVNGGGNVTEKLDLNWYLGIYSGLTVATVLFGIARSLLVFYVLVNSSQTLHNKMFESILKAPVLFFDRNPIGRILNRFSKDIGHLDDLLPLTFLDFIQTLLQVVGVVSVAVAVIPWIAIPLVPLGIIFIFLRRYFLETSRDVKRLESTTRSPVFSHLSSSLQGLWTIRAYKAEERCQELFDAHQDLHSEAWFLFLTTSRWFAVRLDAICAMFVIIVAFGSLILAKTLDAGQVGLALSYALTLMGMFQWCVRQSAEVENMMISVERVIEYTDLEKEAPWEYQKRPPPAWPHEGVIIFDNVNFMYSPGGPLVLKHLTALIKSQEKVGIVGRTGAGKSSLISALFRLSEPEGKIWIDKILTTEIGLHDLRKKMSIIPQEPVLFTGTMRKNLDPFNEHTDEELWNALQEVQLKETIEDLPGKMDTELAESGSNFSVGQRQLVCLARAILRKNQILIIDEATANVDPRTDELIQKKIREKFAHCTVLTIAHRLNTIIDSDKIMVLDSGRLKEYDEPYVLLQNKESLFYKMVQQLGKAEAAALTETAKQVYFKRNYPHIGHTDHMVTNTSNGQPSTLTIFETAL

[3] = Drug concentration at steady state in human at 200 mg, po TID after 8 hrs; type: ADME, organism-based; settings: in vivo, read-out: Css
[4] = biological target: ATP-binding cassette sub-family C member 2 (Homo sapiens, UniProt Q92887); experiment: Inhibition of human MRP2 overexpressed in Sf9 cell membrane vesicles assessed as uptake of [3H]-estradiol-17beta-D-glucuronide in presence of ATP and GSH measured after 20 mins by membrane vesicle transport assay
Chain of ATP-binding cassette sub-family C member 2 (Q92887 whole entry): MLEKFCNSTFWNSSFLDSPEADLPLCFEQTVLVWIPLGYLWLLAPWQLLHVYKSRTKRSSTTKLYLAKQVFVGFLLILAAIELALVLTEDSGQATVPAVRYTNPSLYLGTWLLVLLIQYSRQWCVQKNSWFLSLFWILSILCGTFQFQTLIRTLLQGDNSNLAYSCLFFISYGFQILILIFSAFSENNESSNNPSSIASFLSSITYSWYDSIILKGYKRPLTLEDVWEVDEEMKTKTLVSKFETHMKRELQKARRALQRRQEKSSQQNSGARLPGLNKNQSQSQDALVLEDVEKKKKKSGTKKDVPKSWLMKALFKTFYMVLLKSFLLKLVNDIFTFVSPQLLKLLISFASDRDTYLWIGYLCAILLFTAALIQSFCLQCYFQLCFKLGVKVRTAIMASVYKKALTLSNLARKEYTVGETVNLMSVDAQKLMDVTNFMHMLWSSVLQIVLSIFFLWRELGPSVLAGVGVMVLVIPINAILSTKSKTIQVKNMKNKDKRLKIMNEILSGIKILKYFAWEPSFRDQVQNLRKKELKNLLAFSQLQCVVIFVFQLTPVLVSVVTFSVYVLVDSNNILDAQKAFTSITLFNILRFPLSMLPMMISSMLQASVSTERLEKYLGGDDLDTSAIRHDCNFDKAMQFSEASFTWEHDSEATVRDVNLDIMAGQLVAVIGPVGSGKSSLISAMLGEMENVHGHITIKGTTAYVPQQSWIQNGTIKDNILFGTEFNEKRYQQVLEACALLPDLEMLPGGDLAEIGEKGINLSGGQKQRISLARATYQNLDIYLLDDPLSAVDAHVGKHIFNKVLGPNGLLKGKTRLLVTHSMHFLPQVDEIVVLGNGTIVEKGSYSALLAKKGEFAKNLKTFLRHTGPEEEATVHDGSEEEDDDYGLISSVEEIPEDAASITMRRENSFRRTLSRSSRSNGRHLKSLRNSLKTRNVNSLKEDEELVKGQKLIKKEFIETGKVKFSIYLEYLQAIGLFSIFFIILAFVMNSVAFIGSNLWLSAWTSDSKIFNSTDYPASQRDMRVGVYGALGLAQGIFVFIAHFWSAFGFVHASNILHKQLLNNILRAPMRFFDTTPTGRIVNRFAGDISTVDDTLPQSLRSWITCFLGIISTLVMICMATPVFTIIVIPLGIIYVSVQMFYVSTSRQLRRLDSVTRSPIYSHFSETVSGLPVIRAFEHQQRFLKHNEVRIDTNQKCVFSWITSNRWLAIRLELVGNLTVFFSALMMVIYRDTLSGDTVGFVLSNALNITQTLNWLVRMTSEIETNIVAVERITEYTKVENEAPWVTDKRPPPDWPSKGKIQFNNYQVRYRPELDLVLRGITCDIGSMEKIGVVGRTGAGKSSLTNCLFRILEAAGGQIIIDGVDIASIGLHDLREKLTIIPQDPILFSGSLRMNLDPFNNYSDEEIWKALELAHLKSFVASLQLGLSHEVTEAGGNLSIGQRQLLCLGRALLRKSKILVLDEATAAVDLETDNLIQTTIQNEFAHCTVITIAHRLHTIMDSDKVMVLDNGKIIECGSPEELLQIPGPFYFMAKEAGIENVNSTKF

[5] = biological target: ATP-binding cassette sub-family C member 3 (Homo sapiens, UniProt O15438); experiment: Inhibition of human MRP3 overexpressed in Sf9 insect cell membrane vesicles assessed as uptake of [3H]-estradiol-17beta-D-glucuronide in presence of ATP and GSH measured after 10 mins by membrane vesicle transport assay; type: ADME, cell-based
Chain of ATP-binding cassette sub-family C member 3 (O15438 whole entry): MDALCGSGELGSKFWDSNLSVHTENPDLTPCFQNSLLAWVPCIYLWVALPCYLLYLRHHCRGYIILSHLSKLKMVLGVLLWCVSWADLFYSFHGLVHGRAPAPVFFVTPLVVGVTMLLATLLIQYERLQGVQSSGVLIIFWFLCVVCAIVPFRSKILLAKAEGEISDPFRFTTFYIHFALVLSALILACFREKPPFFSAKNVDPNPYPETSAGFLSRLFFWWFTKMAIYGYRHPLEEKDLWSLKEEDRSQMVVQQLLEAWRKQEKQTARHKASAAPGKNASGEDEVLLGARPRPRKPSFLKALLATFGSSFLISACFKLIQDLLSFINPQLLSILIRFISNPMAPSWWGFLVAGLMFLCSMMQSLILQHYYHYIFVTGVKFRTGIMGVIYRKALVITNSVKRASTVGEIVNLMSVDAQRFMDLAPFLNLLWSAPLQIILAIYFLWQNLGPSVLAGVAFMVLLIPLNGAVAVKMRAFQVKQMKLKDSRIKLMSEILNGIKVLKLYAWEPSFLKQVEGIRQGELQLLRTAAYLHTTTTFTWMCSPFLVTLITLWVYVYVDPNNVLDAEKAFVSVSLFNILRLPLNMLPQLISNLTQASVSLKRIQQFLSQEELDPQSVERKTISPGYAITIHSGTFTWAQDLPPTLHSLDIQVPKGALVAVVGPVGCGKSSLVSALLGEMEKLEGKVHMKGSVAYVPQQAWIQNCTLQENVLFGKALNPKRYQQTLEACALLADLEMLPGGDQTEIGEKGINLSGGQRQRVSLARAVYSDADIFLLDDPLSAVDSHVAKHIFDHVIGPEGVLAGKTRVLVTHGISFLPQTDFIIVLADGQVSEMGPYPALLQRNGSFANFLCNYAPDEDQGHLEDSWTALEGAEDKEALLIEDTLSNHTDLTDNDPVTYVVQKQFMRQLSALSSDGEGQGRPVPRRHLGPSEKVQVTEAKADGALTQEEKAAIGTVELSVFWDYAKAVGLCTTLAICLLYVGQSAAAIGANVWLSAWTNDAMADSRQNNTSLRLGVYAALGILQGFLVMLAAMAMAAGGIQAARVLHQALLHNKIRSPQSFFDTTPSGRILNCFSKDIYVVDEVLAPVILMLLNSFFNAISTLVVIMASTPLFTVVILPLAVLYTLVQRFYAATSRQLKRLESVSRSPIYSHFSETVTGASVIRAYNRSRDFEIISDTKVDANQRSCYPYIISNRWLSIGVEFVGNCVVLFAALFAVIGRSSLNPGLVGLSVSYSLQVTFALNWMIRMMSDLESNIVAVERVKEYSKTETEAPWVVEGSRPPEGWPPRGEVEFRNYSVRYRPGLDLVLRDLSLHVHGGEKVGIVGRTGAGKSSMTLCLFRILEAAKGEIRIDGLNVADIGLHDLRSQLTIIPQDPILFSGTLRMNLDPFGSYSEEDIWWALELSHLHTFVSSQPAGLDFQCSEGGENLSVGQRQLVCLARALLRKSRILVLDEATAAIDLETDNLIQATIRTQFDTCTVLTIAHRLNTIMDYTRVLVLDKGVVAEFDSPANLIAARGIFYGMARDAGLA

[6] = biological target: Bile salt export pump (Homo sapiens, UniProt O95342); experiment: Inhibition of human BSEP overexpressed in Sf9 cell membrane vesicles assessed as uptake of [3H]-taurocholate in presence of ATP measured after 15 to 20 mins by membrane vesicle transport assay; type: ADME, cell-based
Chain of Bile salt export pump (O95342 whole entry): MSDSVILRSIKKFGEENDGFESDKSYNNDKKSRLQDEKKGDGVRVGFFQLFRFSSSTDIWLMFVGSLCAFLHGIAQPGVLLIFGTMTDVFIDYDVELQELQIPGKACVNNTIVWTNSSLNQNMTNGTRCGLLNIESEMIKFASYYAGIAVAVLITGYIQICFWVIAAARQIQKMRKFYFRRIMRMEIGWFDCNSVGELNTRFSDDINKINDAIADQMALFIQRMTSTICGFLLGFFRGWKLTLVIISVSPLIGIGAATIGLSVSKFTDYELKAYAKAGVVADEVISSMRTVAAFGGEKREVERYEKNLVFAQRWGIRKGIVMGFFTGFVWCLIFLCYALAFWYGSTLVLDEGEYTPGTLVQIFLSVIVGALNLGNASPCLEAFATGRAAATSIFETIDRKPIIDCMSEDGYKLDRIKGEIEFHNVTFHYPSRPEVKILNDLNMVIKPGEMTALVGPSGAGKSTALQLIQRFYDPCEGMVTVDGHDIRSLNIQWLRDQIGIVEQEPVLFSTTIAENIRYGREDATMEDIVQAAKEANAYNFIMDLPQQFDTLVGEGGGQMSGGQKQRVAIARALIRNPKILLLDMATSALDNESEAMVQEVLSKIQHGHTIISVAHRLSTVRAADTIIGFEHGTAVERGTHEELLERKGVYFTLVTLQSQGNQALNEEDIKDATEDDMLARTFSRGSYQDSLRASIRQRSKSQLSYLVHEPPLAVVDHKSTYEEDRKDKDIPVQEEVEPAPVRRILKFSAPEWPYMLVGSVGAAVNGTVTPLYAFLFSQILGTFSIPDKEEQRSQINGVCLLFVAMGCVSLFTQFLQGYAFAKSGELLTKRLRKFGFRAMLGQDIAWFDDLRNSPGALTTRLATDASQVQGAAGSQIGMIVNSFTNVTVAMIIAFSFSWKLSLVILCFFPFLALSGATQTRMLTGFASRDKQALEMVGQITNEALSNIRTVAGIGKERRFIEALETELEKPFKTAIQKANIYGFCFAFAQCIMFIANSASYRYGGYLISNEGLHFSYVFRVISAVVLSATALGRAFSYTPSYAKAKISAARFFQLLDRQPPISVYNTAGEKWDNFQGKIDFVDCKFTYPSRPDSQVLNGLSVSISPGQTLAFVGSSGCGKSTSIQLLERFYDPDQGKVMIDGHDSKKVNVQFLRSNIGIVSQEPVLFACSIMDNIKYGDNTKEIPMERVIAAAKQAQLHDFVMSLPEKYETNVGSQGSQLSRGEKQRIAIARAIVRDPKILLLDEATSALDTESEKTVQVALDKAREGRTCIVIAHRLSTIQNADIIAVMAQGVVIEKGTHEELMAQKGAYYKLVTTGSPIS

[7] = AUC in human at 200 mg, po TID after 8 hrs; type: ADME, organism-based; parameters: time < 8 hr, dose 200 mg, route oral; settings: in vivo
[8] = AUC in human at 600 mg administered twice weekly followed by 600 mg administered once in a week measured after 84 hrs; type: ADME; parameters: dose 600 mg, time < 84 hr; settings: in vivo
[9] = Ratio of drug concentration at steady state in human at 600 mg administered twice weekly followed by 600 mg administered once in a week measured after 84 hrs to IC50 for human MRP2 overexpressed in Sf9 insect cells; type: ADME; settings: in vivo
[10] = Ratio of drug concentration at steady state in human at 600 mg administered twice weekly followed by 600 mg administered once in a week measured after 84 hrs to IC50 for human MRP4 overexpressed in Sf9 insect cells; type: ADME; settings: in vivo
[11] = Drug concentration at steady state in human at 600 mg administered twice weekly followed by 600 mg administered once in a week measured after 84 hrs; type: ADME; settings: in vivo, read-out: Css
[12] = Ratio of drug concentration at steady state in human at 600 mg administered twice weekly followed by 600 mg administered once in a week measured after 84 hrs to IC50 for human BSEP overexpressed in Sf9 insect cells; type: ADME; settings: in vivo
[13] = Ratio of drug concentration at steady state in human at 600 mg administered twice weekly followed by 600 mg administered once in a week measured after 84 hrs to IC50 for human MRP3 overexpressed in Sf9 insect cells; type: ADME; settings: in vivo
[14] = Ratio of drug concentration at steady state in human at 2 g, po QD after 24 hrs to IC50 for human BSEP overexpressed in Sf9 insect cells; type: ADME, organism-based; settings: in vivo
[15] = Drug concentration at steady state in human at 2 g, po QD after 24 hrs; type: ADME, organism-based; settings: in vivo, read-out: Css
[16] = AUC in human at 2 g, po QD after 24 hrs; type: ADME, organism-based; parameters: dose 2 g, time < 24 hr, route oral; settings: in vivo
[17] = Ratio of drug concentration at steady state in human at 400 to 800 mg, po QD used as formulation with ritonavir measured after 24 hrs to IC50 for human MRP3 overexpressed in Sf9 insect cells; type: ADME, organism-based; settings: in vivo
[18] = Ratio of drug concentration at steady state in human at 400 to 800 mg, po QD used as formulation with ritonavir measured after 24 hrs to IC50 for human BSEP overexpressed in Sf9 insect cells; type: ADME, organism-based; settings: in vivo
[19] = Drug concentration at steady state in human at 400 to 800 mg, po QD used as formulation with ritonavir measured after 24 hrs; type: ADME, organism-based; settings: in vivo, read-out: Css
[20] = AUC in human at 400 to 800 mg, po QD used as formulation with ritonavir measured after 24 hrs; type: ADME, organism-based; settings: in vivo
[21] = Ratio of drug concentration at steady state in human at 400 to 800 mg, po QD used as formulation with ritonavir measured after 24 hrs to IC50 for human MRP4 overexpressed in Sf9 insect cells; type: ADME, organism-based; settings: in vivo
[22] = Ratio of drug concentration at steady state in human at 125 to 500 mg, po QID after 6 hrs to IC50 for human BSEP overexpressed in Sf9 insect cells; type: ADME, organism-based; settings: in vivo
[23] = Drug concentration at steady state in human at 125 to 500 mg, po QID after 6 hrs; type: ADME, organism-based; settings: in vivo, read-out: Css
[24] = AUC in human at 125 to 500 mg, po QID after 6 hrs; type: ADME, organism-based; settings: in vivo
[25] = AUC in human at 135 to 175 mg/m2, iv administered as infusion for 3 or 24 hrs measured after 1 hr; type: ADME, organism-based; parameters: time < 1 hr, route intravenous; settings: in vivo
[26] = test system: Homo sapiens; experiment: Drug concentration at steady state in human at 135 to 175 mg/m2, iv administered as infusion for 3 or 24 hrs measured after 1 hr; type: ADME, organism-based; settings: in vivo

Row | SMILES | IC50 [2] [µM] | IC50 [4] [µM] | IC50 [5] [µM] | IC50 [6] [µM] | other results
1 | CC[C@@H]([C@H](C)O)n1ncn(-c2ccc(N3CCN(c4ccc(OC[C@@H]5CO[C@@](Cn6cncn6)(c6ccc(F)cc6F)C5)cc4)CC3)cc2)c1=O [POSACONAZOLE] | > 133 | > 133 | > 133 | 8.1 | Ratio [1]: 0.544; concentration at 8 h [3]: 4.41 µM; AUC at 8 h [7]: 35.2 µM·h
2 | CCOC(=O)C(C)(C)Oc1ccc(Cl)cc1 [CLOFIBRATE] | > 133 | > 133 | > 133 | 71 | Ratio [14]: 0.381; concentration at 24 h [15]: 27.1 µM; AUC at 24 h [16]: 649 µM·h
3 | Cc1cccc(C)c1OCC(=O)N[C@@H](Cc1ccccc1)[C@@H](O)C[C@H](Cc1ccccc1)NC(=O)[C@H](C(C)C)N1CCCNC1=O [LOPINAVIR] | 47 | > 133 | 21 |  | Ratio [17]: 0.314; Ratio [18]: 0.381; concentration at 24 h [19]: 6.6 µM; AUC at 24 h [20]: 158 µM·h; Ratio [21]: 0.14
4 | Cc1onc(-c2c(Cl)cccc2Cl)c1C(=O)N[C@@H]1C(=O)N2[C@@H]1SC(C)(C)[C@@H]2C(=O)O [DICLOXACILLIN] | > 133 | > 133 | > 133 | 56.4 | Ratio [22]: 0.498; concentration at 6 h [23]: 28.1 µM; AUC at 6 h [24]: 168 µM·h

Continued, in another order:

Row | IC50 [2] [µM] | IC50 [4] [µM] | IC50 [5] [µM] | SMILES | IC50 [6] [µM] | other results
5 | 35.9 | 16.3 | 80.9 | CO[C@H]1/C=C/O[C@@]2(C)Oc3c(C)c(O)c4c(O)c(c(/C=N/N5CCN(C6CCCC6)CC5)c(O)c4c3C2=O)NC(=O)/C(C)=C\C=C\[C@H](C)[C@H](O)[C@@H](C)[C@@H](O)[C@@H](C)[C@H](OC(C)=O)[C@@H]1C [RIFAPENTINE] | 9.91 | AUC at 84 h [8]: 395 µM·h; Ratio [9]: 0.288; Ratio [10]: 0.131; concentration at 84 h [11]: 4.7 µM; Ratio [12]: 0.474; Ratio [13]: 0.058
6 | > 133 | > 133 | > 133 | CC(=O)O[C@H]1C(=O)[C@@]2(C)[C@H]([C@H](OC(=O)c3ccccc3)[C@]3(O)C[C@H](OC(=O)[C@H](O)[C@@H](NC(=O)c4ccccc4)c4ccccc4)C(C)=C1C3(C)C)[C@]1(OC(C)=O)CO[C@@H]1C[C@@H]2O [PACLITAXEL] |  | AUC at 1 h [25]: 14.8 µM·h; Css [26]: 14.759 µM
